Source: patent US4087432A, “1H-imidazo(4,5-b)pyridine compounds” (Eli Lilly and Company, priority 1975, dated 1978)

Legend:
Type in all cases: in vivo
Details in all cases: alone
[1] = system: Velvet Leaf; experiment: General herbicidal effect alone/in combination, velvetleaf
Method: (§1) Various of the compounds to be employed as active agent in accordance with the present invention were evaluated for preemergent application to various species of plants. In this evaluation, a soil was prepared consisting of one part masonry sand and one part shredded top soil blended together in a cement mixer. One gallon of this soil was placed in a 25 × 35 cm. galvanized flat and was patted down with a bench brush until level. A three-row marker was used to make 21/2 cm. deep furrows in approximately two-fifths of the flat. Crop seeds consisting of four kernels of corn, five cotton seeds and five soybean seeds were placed in these furrows. A four-row template was then placed on the remaining soil and the indicated approximate numbers of each of the following seeds were planted, one species to each section: foxtail (millet), 80-100 seeds; velvetleaf (40-50 seeds); rough pigweed (150-250 seeds); and large crabgrass (100-150 seeds).
(§2) Sufficient soil was added to cover the entire flat. Thus, the weed seeds were covered to a depth of about 6 mm. and the crop seeds were covered to a depth of about 3 cm.
(§3) In assaying the effect of the composition as preemergent herbicides, a flat prepared as above, taken either on the day of planting or on the next day, was placed in a chamber equipped with a turntable and an air exhaust. The herbicidal composition, either a spray-type emulsion or a wettable powder, was applied to the flat with a modified DeVilbiss atomizer hooked to an air source. Twelve and one-half milliliters of the composition under test were applied to each flat either on the day of planting or the succeeding day. Injury ratings and observations as to type of injury were made eleven to twelve days after treatment. The injury rating scale used was as follows:
(§4) 4--death When more than one determination was carried out at a given rate, an average value was calculated for the injury rating. Each compound evaluated was formulated as a spray by one of the following procedures. In one method the particular compound was wetted by grinding in a mortar with one part of polyoxyethylene sorbitan monolaurate. Five hundred parts of water were added slowly to the resultant creamy paste to give an aqueous dispersion with a surfactant concentration of 0.2 percent. This dispersion was entirely satisfactory for spray application. In a second procedure the compound was dissolved in one volume of acetone, and the acetone solution was diluted with nineteen volumes of water containing 0.1 percent of polyoxyethylene sorbitan monolaurate.
(§5) 6-Chloro-1-hydroxy-2-(trifluoromethyl)-1H-imidazo(4,5-b)pyridine was evaluated in combination with 2-chloro-4-ethylamino-6-isopropylamino-s-triazine and separately in combination with 2-chloro-2',6'-diethyl-N-(methoxymethyl)acetanilide for the control of plants. The evaluations were conducted as described in Examples 49-52, except that the rates of compound differed and the species were different. General herbicidal effect was rated on a scale of 0-10, with 0 = no injury and 10 = death. Observations were also made for the following other specific phytotoxic effects.

[2] = system: Sorghum; experiment: General herbicidal effect alone/in combination, sorghum
Method: as §1, §2, §3, §4, §5

[3] = system: Jimsonweed; experiment: General herbicidal effect alone/in combination, jimsonweed
Method: as §1, §2, §3, §4, §5

[4] = system: Rice; experiment: General herbicidal effect alone/in combination, rice
Method: as §1, §2, §3, §4, §5

[5] = system: Corn; experiment: General herbicidal effect alone/in combination, corn (first Corn column)
Method: as §1, §2, §3, §4, §5

[6] = system: Ragweed; experiment: General herbicidal effect alone/in combination, ragweed
Method: as §1, §2, §3, §4, §5

[7] = system: Morning glory; experiment: General herbicidal effect alone/in combination, morning glory
Method: as §1, §2, §3, §4, §5

[8] = system: Large Crabgrass; experiment: General herbicidal effect alone/in combination, large crabgrass
Method: as §1, §2, §3, §4, §5

[9] = system: Pigweed; experiment: General herbicidal effect alone/in combination, pigweed
Method: as §1, §2, §3, §4, §5

[10] = system: Lambs Quarter; experiment: General herbicidal effect alone/in combination, lambsquarter
Method: as §1, §2, §3, §4, §5

[11] = system: Corn; experiment: General herbicidal effect alone/in combination, corn (second Corn column)
Method: as §1, §2, §3, §4, §5

[12] = system: Johnson Grass; experiment: General herbicidal effect alone/in combination, Johnson grass
Method: as §1, §2, §3, §4, §5

[13] = system: Foxtail Millet; experiment: General herbicidal effect alone/in combination, foxtail millet
Method: as §1, §2, §3, §4, §5

[14] = system: Barnyard Grass; experiment: General herbicidal effect alone/in combination, barnyard grass
Method: as §1, §2, §3, §4, §5

## CCNc1nc(Cl)nc(NC(C)C)n1 [B, 2-chloro-4-ethylamino-6-isopropylamino-s-triazine]
[1]; 0.25 lbs/A
  herbicidal effect, Velvet leaf: 3S
[1]; 0.5 lbs/A
  herbicidal effect, Velvet leaf: 3S
[1]; 1.0 lbs/A
  herbicidal effect, Velvet leaf: 7BS
[1]; 2.0 lbs/A
  herbicidal effect, Velvet leaf: 10D
[2]; 0.25 lbs/A
  herbicidal effect, Sorghum: 0
[2]; 0.5 lbs/A
  herbicidal effect, Sorghum: 0
[2]; 1.0 lbs/A
  herbicidal effect, Sorghum: 1B
[2]; 2.0 lbs/A
  herbicidal effect, Sorghum: 2B
[3]; 0.25 lbs/A
  herbicidal effect, Jimsonweed: 9BS
[3]; 0.5 lbs/A
  herbicidal effect, Jimsonweed: 9BS
[3]; 1.0 lbs/A
  herbicidal effect, Jimsonweed: 9BS
[3]; 2.0 lbs/A
  herbicidal effect, Jimsonweed: 9BS
[4]; 0.25 lbs/A
  herbicidal effect, Rice: 4B
[4]; 0.5 lbs/A
  herbicidal effect, Rice: 4B
[4]; 1.0 lbs/A
  herbicidal effect, Rice: 7B
[4]; 2.0 lbs/A
  herbicidal effect, Rice: 8B
[5]; 0.25 lbs/A
  herbicidal effect, Corn: 0
[5]; 0.5 lbs/A
  herbicidal effect, Corn: 0
[5]; 1.0 lbs/A
  herbicidal effect, Corn: 0
[5]; 2.0 lbs/A
  herbicidal effect, Corn: 0
[6]; 0.25 lbs/A
  herbicidal effect, Ragweed: 5S
[6]; 0.5 lbs/A
  herbicidal effect, Ragweed: 7SB
[6]; 1.0 lbs/A
  herbicidal effect, Ragweed: 8BS
[6]; 2.0 lbs/A
  herbicidal effect, Ragweed: 10D
[7]; 0.25 lbs/A
  herbicidal effect, Morning glory: 8BS
[7]; 0.5 lbs/A
  herbicidal effect, Morning glory: 9BS
[7]; 1.0 lbs/A
  herbicidal effect, Morning glory: 10D
[7]; 2.0 lbs/A
  herbicidal effect, Morning glory: 10D
[8]; 0.25 lbs/A
  herbicidal effect, Large Crabgrass: 0
[8]; 0.5 lbs/A
  herbicidal effect, Large Crabgrass: 2S
[8]; 1.0 lbs/A
  herbicidal effect, Large Crabgrass: 5S
[8]; 2.0 lbs/A
  herbicidal effect, Large Crabgrass: 6BS
[9]; 0.25 lbs/A
  herbicidal effect, Pigweed: 9BS
[9]; 0.5 lbs/A
  herbicidal effect, Pigweed: 10D
[9]; 1.0 lbs/A
  herbicidal effect, Pigweed: 10D
[9]; 2.0 lbs/A
  herbicidal effect, Pigweed: 10D
[10]; 0.25 lbs/A
  herbicidal effect, Lambs Quarter: 9BS
[10]; 0.5 lbs/A
  herbicidal effect, Lambs Quarter: 9BS
[10]; 1.0 lbs/A
  herbicidal effect, Lambs Quarter: 9.5BS
[10]; 2.0 lbs/A
  herbicidal effect, Lambs Quarter: 9.5BS
[11]; 0.25 lbs/A
  herbicidal effect, Corn: 0
[11]; 0.5 lbs/A
  herbicidal effect, Corn: 0
[11]; 1.0 lbs/A
  herbicidal effect, Corn: 0
[11]; 2.0 lbs/A
  herbicidal effect, Corn: 0
[12]; 0.25 lbs/A
  herbicidal effect, Johnson Grass: 3S
[12]; 0.5 lbs/A
  herbicidal effect, Johnson Grass: 0
[12]; 1.0 lbs/A
  herbicidal effect, Johnson Grass: 0
[12]; 2.0 lbs/A
  herbicidal effect, Johnson Grass: 2S
[13]; 0.25 lbs/A
  herbicidal effect, Foxtail Millet: 0
[13]; 0.5 lbs/A
  herbicidal effect, Foxtail Millet: 0
[13]; 1.0 lbs/A
  herbicidal effect, Foxtail Millet: 4SB
[13]; 2.0 lbs/A
  herbicidal effect, Foxtail Millet: 5SB
[14]; 0.25 lbs/A
  herbicidal effect, Barnyard Grass: 2S
[14]; 0.5 lbs/A
  herbicidal effect, Barnyard Grass: 5SB
[14]; 1.0 lbs/A
  herbicidal effect, Barnyard Grass: 4SB
[14]; 2.0 lbs/A
  herbicidal effect, Barnyard Grass: 8BS
